Experimental data reported in patent US8318812B2, “Therapeutic agents for the treatment of lymphoid malignancies” (The Ohio State University Research Foundation, priority 2006, dated 2012).

Experiments:
[1] = test system: MEC, Ramos, Raji, 697 and RS4-11 B cell lines; assay: Annexin V/PI viability by flow cytometry in B cell lines; assay type: cell-based, Human; conditions: Ramos cells; okadaic acid pretreatment
Experimental: Cells: Blood was obtained from patients with B-cell CLL with informed consent under a protocol approved by the hospital internal review board. All patients examined in this series had immunophenotypically defined CLL as outlined by the modified 96 National Cancer Institute criteria. B-CLL cells were isolated from freshly donated blood using ficoll density gradient centrifugation (Ficoll-Paque Plus, Amershan Biosciences, Piscataway, N.J.). Isolated mononuclear cells were incubated in RPMI 1640 media (Gibco/Invitrogen, Carlsbad, Calif.) supplemented with 10% heat-inactivated fetal bovine serum (FBS, Hyclone Laboratories, Logan, Utah), 2 mM L-glutamine (Invitrogen, Carlsbad, Calif.), and penicillin (100 U/mL)/streptomycin (100 μg/ml) [Sigma-Aldrich, St. Louis] at 37° C. in an atmosphere of 5% CO2. Freshly isolated B-CLL cells were used in all experiments described herein. […]
Analysis of cell viability and apoptosis: The cell viability was carried out by dual staining with Annexin V conjugated to flourescein-isothyocyanate (FITC) and Propidium iodide (PI) as described previously. Briefly, 1×10^6 cells were stained with Annexin V-FITC (BD Pharmingen) and Propidium iodide (BD Pharmingen) for 15 minutes in dark and analyzed by flow cytometry using a Beckman-Coulter EPICS XL cytometer (Beckman-Coulter, Miami, Fla.). […]

[2] = test system: CD19+ B cells from CLL patients; assay type: cell-based; conditions: CLL cells
Experimental: Cells: Blood was obtained from patients with B-cell CLL with informed consent under a protocol approved by the hospital internal review board. All patients examined in this series had immunophenotypically defined CLL as outlined by the modified 96 National Cancer Institute criteria. B-CLL cells were isolated from freshly donated blood using ficoll density gradient centrifugation (Ficoll-Paque Plus, Amershan Biosciences, Piscataway, N.J.). Isolated mononuclear cells were incubated in RPMI 1640 media (Gibco/Invitrogen, Carlsbad, Calif.) supplemented with 10% heat-inactivated fetal bovine serum (FBS, Hyclone Laboratories, Logan, Utah), 2 mM L-glutamine (Invitrogen, Carlsbad, Calif.), and penicillin (100 U/mL)/streptomycin (100 μg/ml) [Sigma-Aldrich, St. Louis] at 37° C. in an atmosphere of 5% CO2. Freshly isolated B-CLL cells were used in all experiments described herein. Enriched B-lymphocyte fractions were prepared by using MACS negative selection kit by Miltenyi Biotech (Auburn, Calif.) or by “Rosette-Sep” kit from Stem Cell Technologies (Vancouver, British Columbia, Canada) according to the manufacturer's instructions. Human B-lymphocyte cell lines Raji and Ramos were obtained from ATCC (Manassas, Va.) and the MEC cells were obtained from German cell line bank (Braunschweig, Germany). The 697-neo and 697-Bcl-2 cell lines were kind gift from Dr. John Reed (Burnham Institute, La Jolla, Calif.). Cells were cultured at 37° C. in an atmosphere of 5% CO2 in RPMI 1640 media (Gibco/Invitrogen, Carlsbad, Calif.) supplemented with 10% fetal bovine serum (Gibco/Invitrogen).
Analysis of cell viability and apoptosis: The cell viability was carried out by dual staining with Annexin V conjugated to flourescein-isothyocyanate (FITC) and Propidium iodide (PI) as described previously. Briefly, 1×10^6 cells were stained with Annexin V-FITC (BD Pharmingen) and Propidium iodide (BD Pharmingen) for 15 minutes in dark and analyzed by flow cytometry using a Beckman-Coulter EPICS XL cytometer (Beckman-Coulter, Miami, Fla.). Apoptotic cells were identified as Annexin V and/or PI positive cells. Cells excluding both FITC and PI were considered to be viable. The Annexin V^−/PI^− cells are represented as % live cells normalized to untreated controls.
B-CLL cells are reported to be resistant to apoptosis in-vivo. To systematically analyze the effects of FTY720 on B-CLL cells, purified CD19^+ cells from B-CLL patients were incubated with increasing concentrations of FTY720 ranging from 0, 0.5, 1, 1.5, 2.5, 5 or 10 uM. The cytotoxic effects were independently determined by flow cytometry using propidium iodide (PI) and Annexin V conjugated FITC reagents. Populations excluding both PI and Annexin V-FITC staining were considered viable. […]

PP2A [3] = assay: PP2A activity (malachite green phosphatase assay) in lysates of CLL cells; assay type: cell-based, Human; conditions: pretreatment with 5 nM okadaic acid
Experimental: (§1) PP2A Activity: The protein phosphatase activity of total cellular lysate was determined by measuring the generation of free PO4 from the threonine phosphopeptide using the malachite green-phosphate complex assay as described by the manufacturer (Upstate, Charlottesville, […].). Cell lysates were prepared in a low detergent lysis buffer (1% Nonidet P-40, 10 mM HEPES, 0.5M NaCl, 10% Glycerol, 1 mM PMSF, 5 mM Benzamidine, 10 μg/ml leupeptin). The phosphatase assay was performed in a PP2A-specific reaction buffer (Upstate) using 750 μM phosphopeptide substrate. After 30-min incubation at 30° C. malachite dye was added, and free phosphate was measured by optical density at 650 nm. To avoid variability among different immunoprecipitated samples, the phosphatase activities were normalized with the amount of PP2A immunoprecipitated, as detected and quantified by western blot analysis of each treatment group.
In order to determine if FTY720 induced activation of PP2A enzyme in CD19^+ B cells from CLL patients were treated with 10 uM FTY720 for 0, 1, 2, 3, 4 and 15 hrs and the PP2A activity in the lysates were quantified using a functional assay following immunoprecipitation of PP2A enzyme. As reported previously in other systems, FTY720 induced a consistent 2-3 fold increase in PP2A activation with the peak response observed at 4 hour post treatment (FIG. 6a). […] Similar phenomenon was also observed in Ramos B cell line. FTY720 induced activation of PP2A in Ramos cell line as early as 3 hours and this induced PP2A activity was inhibited by okadaic acid (FIG. 7a-b).

PP2A [4] = assay: PP2A activity in lysates of Ramos B cell line; assay type: cell-based, Human
Experimental: as §1
In order to determine if FTY720 induced activation of PP2A enzyme in CD19^+ B cells from CLL patients were treated with 10 uM FTY720 for 0, 1, 2, 3, 4 and 15 hrs and the PP2A activity in the lysates were quantified using a functional assay following immunoprecipitation of PP2A enzyme. As reported previously in other systems, FTY720 induced a consistent 2-3 fold increase in PP2A activation with the peak response observed at 4 hour post treatment (FIG. 6a). […]

Mino cells = assay: Annexin V/PI toxicity in Mino cells; assay type: cell-based, Human; conditions: 150 μM z-VAD-fmk
Experimental: Primary MCL cells were isolated from PBMC (with informed patient consent under a protocol approved by IRB) as described before. All the MCL patients were identified as outlined by the World Health Organization (WHO) classification. Human mantle cell lymphoma patient cell lines (Mino and Jeko) were obtained from Dr. Raymond Lai. Primary cells or MCL cell lines were incubated in RPMI 1640 media, supplemented with 10%-20% heat-inactivated fetal bovine serum, 2 mM L-glutamine and penicillin (100 U/mL)/streptomycin ([…]) at 37° C. in an atmosphere of 5% CO2. FTY720 was synthesized as previously described. Toxicity was determined by flow cytometry using Annexin-V-FITC and Propidium Iodide (PI) staining. Apoptotic cells were identified as Annexin-V+ and/or PI+ cells. Cells excluding both FITC and PI were considered viable. Western Blotting was performed as described previously using indicated antibodies. The PARP (Ab-2) and Caspase 9 antibodies were purchased from Oncogene/Calbiochem/EMD Biosciences (San Diego, Calif.). Cyclin D1, Akt, Actin, Mcl-1, p-ERK, ERK and Bcl-2 were obtained from Santa Cruz biotech (Santa Cruz, Calif.).
Several therapeutic agents, including fludarabine, chlorambucil, 2-chloro-2-deoxyadenosine and glucocorticoids, induce toxicity in B cell malignancies through activating caspases, the cysteine proteases of CED3/ICE family. Inhibition of these caspases results in abrogation of apoptosis mediated by the toxic stimuli. To determine if caspase activation is involved in FTY720-induced cytotoxicity in MCL, we pretreated Mino cells with 150 μM broad spectrum caspase inhibitor z-VAD-fmk. […] Activation of caspases results in cleavage of key cellular proteins including poly-ADP-ribose polymerase (PARP).

## C=C1[C@@H](O)[C@@H]2O[C@]3(CC[C@H](/C=C/[C@@H](C)[C@@H]4CC(C)=C[C@@]5(O[C@H](C[C@@](C)(O)C(=O)O)CC[C@H]5O)O4)O3)CC[C@H]2O[C@@H]1[C@@H](O)C[C@H](C)[C@H]1O[C@@]2(CCCCO2)CC[C@H]1C [okadaic acid]
[1]
  effect of okadaic acid on FTY720 induced apoptosis: inhibition of FTY720 induced apoptosis
[2]; okadaic acid pretreatment
  effect of okadaic acid on FTY720 induced cellular cytotoxicity: inhibition of FTY720 induced cellular cytotoxicity
PP2A [3]
  inhibition of the FTY720 induced PP2A activation: ≤ 3 fold
PP2A [4]
  effect of okadaic acid on FTY720 induced PP2A activity: inhibited

## z-VAD-fmk
[2]; z-VAD-fmk 150 uM
  effect of z-VAD-fmk on FTY720 induced apoptosis: failed to prevent FTY720 induced apoptosis
  effect of z-VAD-fmk on fludarabine induced apoptosis: effectively rescued fludarabine induced apoptosis
Mino cells
  reduction in FTY720 induced apoptosis: ~50%
  reduction in fludarabine induced apoptosis: ~50%
